Measured values from patent US20250214991A1 (Oncopia Therapeutics, Inc. d/b/a/ SK Life Science Labs, priority 2022, published 2025).
pIC50: −log10 of the molar value.

What was measured:
[1] = target: CRBN/DDB1 (Homo sapiens (Human), UniProt Q96SW2); assay: IC50 measurements for binding to CRBN/DDB1 (HTRF); conditions: His tagged CRBN+DDB, Cy5-labeled Thalidomide probe, one hour
How it was run: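 HTRF competition binding with 2 nM His-tagged CRBN-DDB1 complex, 60 nM Cy5-thalidomide probe and 0.4 nM anti-His Tb cryptate in 50 mM HEPES pH 7.5, 1 mM TCEP, 0.01% Brij-35, 50 mM NaCl, 0.1% BSA. Read after 1 h at room temperature; IC50 from four-parameter dose-response fit.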

[2] = target: T1, IKZF2 (Homo sapiens (Human), UniProt Q96SW2+Q9UKS7); assay: In vitro IKZF2 Western Blot Assay in Jurkat cells; type: cell-based; conditions: 24 hrs; for inhibition at 0.001 µM: read-out: IKZF2 degradation (%) @ μM 0.001; for inhibition at 0.01 µM: read-out: IKZF2 degradation (%) @ μM 0.01; for inhibition at 0.1 µM: read-out: IKZF2 degradation (%) @ μM 0.1; for inhibition at 1 µM: read-out: IKZF2 degradation (%) @ μM 1; for inhibition at 10 µM: read-out: IKZF2 degradation (%) @ μM 10
T1 sequence (Q9UKS7 whole entry): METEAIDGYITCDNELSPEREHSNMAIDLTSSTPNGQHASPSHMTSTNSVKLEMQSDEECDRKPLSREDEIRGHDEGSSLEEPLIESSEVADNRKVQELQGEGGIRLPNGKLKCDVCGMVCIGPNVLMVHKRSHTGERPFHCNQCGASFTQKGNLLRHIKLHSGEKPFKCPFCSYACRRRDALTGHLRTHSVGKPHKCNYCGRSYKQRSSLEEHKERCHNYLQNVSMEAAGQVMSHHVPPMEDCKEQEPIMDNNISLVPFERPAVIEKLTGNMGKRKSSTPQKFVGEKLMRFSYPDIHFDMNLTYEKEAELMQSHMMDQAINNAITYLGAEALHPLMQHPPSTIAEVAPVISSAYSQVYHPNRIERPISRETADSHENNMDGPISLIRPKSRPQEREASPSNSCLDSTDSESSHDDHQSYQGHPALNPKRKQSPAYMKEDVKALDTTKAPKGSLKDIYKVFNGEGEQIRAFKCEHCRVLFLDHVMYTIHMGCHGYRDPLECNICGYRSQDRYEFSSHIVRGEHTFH
T1 sequence (Q96SW2 whole entry): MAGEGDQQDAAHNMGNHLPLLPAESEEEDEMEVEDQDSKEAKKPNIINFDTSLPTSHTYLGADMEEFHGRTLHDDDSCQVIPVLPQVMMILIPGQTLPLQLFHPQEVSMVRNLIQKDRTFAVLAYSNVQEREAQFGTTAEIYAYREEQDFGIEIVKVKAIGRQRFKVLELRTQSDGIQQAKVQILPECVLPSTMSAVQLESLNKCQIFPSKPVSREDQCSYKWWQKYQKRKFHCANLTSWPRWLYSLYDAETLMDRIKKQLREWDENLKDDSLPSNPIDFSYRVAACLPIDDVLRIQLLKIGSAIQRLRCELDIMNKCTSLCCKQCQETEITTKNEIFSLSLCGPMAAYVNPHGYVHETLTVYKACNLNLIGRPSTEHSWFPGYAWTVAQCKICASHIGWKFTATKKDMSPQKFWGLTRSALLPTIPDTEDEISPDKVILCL
T1 sequence (Q16531 2-1140 partner): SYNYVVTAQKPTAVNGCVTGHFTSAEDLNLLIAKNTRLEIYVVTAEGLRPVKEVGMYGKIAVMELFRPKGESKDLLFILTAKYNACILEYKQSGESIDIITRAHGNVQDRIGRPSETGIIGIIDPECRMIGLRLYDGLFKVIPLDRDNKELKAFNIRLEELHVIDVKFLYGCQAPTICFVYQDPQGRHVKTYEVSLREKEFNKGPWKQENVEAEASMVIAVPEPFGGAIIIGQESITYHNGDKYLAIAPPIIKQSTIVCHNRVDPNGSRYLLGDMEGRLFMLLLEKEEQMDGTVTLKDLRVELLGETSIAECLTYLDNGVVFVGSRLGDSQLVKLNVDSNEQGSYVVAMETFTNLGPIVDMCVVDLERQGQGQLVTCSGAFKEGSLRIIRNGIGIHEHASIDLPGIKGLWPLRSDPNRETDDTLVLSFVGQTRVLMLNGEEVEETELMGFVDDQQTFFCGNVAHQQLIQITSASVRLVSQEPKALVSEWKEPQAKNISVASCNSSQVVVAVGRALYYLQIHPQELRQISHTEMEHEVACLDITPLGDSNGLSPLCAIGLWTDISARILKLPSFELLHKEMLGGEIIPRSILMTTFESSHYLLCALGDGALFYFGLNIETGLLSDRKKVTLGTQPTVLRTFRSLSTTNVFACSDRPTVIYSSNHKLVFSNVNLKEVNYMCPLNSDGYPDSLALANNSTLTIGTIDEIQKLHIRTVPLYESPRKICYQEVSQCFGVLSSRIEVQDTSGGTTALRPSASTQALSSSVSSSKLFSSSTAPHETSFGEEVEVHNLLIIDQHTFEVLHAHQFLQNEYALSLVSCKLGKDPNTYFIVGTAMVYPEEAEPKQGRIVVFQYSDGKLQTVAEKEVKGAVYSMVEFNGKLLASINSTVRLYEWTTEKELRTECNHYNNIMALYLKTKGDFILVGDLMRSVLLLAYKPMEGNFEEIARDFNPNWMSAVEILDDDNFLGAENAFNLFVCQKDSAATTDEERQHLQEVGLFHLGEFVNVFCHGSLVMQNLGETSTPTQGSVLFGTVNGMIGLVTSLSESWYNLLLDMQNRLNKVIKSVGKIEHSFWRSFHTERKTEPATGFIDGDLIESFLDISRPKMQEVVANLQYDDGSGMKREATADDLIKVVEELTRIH
Description: In vitro IKZF2 Western Blot Assay Jurkat cells (ATCC, Cat #HB-8065) were cultured in RPMI1640+10% FBS+1% P/S. Cells were treated at desired compound concentrations (0.001, 0.01, 0.1, 1, and 10 μM) and DMSO as vehicle control for 24 hrs. After 24 hr of treatment cells were collected by centrifugation and lysed in RIPA lysis buffer on ice for 10 min. After assessing protein concentration by BCA assay (Pierce), equal amounts of protein for each sample were loaded into 4-12% Bis-Tris gels (Invitrogen), transferred to PVDF membranes and immunoblotted with antibodies against IKZF2 and Actin (Cell Signaling). Membranes were developed on an Odyssey detection system (LI-COR Biosciences) after incubation with IRDye800-labeled goat anti-rabbit IgG and IRDye680-labeled goat anti-mouse IgG (LI-COR) secondary antibodies. Band intensities were quantified using ImageStudio software. Data was further analyzed using XLfit. Percentage of IKZF2 protein degradation: A (>50%); B (30-50%); C(<30%) (Table 2).

[3] = target: T1, IKZF2; assay: In vitro IKZF2 FACS Assay in Jurkat cells; type: cell-based; conditions: 24 hrs
Description: In vitro IKZF2 FACS Assay
DC50, A: <1 nM; B: 1-10 nM; C: 10-100 nM; D: 100-1000 nM; E: >1000 nM. Dmax, A: >80%; B: 60-80%; C: 40-60%; D: 20-40%; E: <20%.

[4] = target: T1, IKZF2; assay: In vitro IKZF2 HiBit Assay (HEK293T Flp-in-HiBiT cells); type: cell-based; conditions: HEK293T Flp-in-HiBiT cells, 6 hrs incubation
How it was run: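 HEK293T Flp-in cells carrying an endogenous N-terminal HiBiT tag on IKZF2 were exposed to compound for 6 h at 0.1% DMSO. The dilution series was 11 doses at 3-fold, diluted from 1 mM. Nano-Glo HiBiT lytic luminescence, normalized to DMSO, gave DC50 for 50% degradation and Dmax across the concentration range, both reported in letter bins.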

[5] = target: IKZF1 (Homo sapiens (Human), UniProt Q13422+Q96SW2); assay: In vitro IKZF1 HiBit Assay (HEK293T Flp-in-HiBiT-IKZF1 stable cell line); type: cell-based; conditions: HEK293T Flp-in-HiBiT-IKZF1 stable cell line, 6 hrs incubation
IKZF1, sequence (Q13422 whole entry): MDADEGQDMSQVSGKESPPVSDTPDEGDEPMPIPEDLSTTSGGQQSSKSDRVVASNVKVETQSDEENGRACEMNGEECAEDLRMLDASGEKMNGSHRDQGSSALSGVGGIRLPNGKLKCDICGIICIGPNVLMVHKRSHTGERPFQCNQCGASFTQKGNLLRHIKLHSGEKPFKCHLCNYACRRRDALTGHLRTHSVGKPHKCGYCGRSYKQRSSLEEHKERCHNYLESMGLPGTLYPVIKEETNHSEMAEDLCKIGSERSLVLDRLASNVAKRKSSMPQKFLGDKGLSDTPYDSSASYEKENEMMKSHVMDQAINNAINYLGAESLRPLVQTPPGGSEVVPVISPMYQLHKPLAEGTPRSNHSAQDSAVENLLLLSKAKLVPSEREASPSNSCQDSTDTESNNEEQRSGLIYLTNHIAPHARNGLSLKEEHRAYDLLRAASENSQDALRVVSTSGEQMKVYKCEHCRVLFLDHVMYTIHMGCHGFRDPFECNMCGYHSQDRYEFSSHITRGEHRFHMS
IKZF1, sequence (Q96SW2 whole entry): as the sequence (Q96SW2 whole entry) above
IKZF1, sequence (Q16531 2-1140 partner): as the sequence (Q16531 2-1140 partner) above
How it was run: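 HEK293T Flp-in cells carrying N-terminal HiBiT-tagged IKZF1 were exposed to compound (0.1% DMSO) for 6 h at 3000 cells/well. HiBiT luminescence was read after lytic LgBiT detection. DC50 and Dmax were taken from DMSO-normalized dose-response curves.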

CRBN/DDB1, sequence (Q96SW2 whole entry, species assumed): as the sequence (Q96SW2 whole entry) above
CRBN/DDB1, sequence (Q16531 whole entry partner, species assumed): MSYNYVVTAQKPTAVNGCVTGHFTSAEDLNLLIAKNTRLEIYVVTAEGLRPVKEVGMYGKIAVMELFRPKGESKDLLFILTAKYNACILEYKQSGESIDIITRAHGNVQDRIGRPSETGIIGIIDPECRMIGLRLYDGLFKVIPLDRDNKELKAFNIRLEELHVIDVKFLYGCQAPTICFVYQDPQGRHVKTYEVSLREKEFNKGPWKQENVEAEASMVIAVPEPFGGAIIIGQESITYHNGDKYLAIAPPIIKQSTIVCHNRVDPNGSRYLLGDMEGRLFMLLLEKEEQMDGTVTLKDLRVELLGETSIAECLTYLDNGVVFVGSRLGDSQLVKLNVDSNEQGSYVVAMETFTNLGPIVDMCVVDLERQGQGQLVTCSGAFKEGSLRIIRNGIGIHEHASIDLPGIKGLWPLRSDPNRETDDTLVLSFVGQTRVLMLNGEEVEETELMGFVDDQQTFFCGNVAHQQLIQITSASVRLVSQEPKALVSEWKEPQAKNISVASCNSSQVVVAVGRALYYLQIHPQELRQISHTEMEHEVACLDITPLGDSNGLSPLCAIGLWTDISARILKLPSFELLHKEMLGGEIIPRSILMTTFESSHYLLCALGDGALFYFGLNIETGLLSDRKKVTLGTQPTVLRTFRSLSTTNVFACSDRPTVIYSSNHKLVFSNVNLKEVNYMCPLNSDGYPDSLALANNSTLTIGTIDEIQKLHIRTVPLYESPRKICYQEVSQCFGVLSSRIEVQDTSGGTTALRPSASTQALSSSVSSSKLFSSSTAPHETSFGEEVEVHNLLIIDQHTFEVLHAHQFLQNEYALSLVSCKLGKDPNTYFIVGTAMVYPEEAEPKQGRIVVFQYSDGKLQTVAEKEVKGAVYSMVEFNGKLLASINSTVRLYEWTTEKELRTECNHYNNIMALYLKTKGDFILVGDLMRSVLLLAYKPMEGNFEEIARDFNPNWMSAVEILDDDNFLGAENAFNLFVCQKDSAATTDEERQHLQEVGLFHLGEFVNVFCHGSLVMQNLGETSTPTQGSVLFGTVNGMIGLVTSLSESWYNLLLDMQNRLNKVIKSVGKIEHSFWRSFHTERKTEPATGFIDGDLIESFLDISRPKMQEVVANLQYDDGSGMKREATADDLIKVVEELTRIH

Row | DC50 ([3]; half maximal degradation concentration) [µM] | Dmax ([3]; maximal degradation percentage) [%] | DC50 ([4]; read-out: IKZF2 HiBit DC50) [µM] | Dmax ([4]; HEK-293T, read-out: IKZF2 HiBit Dmax (%)) [%] | DC50 ([5]; read-out: IKZF1 HiBit DC50) [µM] | Dmax ([5]; HEK-293T, read-out: IKZF1 HiBit Dmax (%)) [%] | SMILES | pIC50 [1] | inhibition at 0.001 µM [2] [%] | inhibition at 0.01 µM [2] [%] | inhibition at 0.1 µM [2] [%] | inhibition at 1 µM [2] [%] | inhibition at 10 µM [2] [%]
1 | – | – | – | – | – | – | O=C1CCC(N2Cc3cc(-c4cc(CNCCc5ccccc5Cl)cc5cncn45)ccc3C2=O)C(=O)N1 (stereo not shown) [Example 21, 3-(5-(7-(((2-chlorophenethyl)amino)methyl)imidazo[1,5-a]pyridin-5-yl)-1-oxoisoindolin-2-yl) piperidine-2,6-dione] | 6.30 to 7.00 | 30 to 50 | > 50 | > 50 | > 50 | > 50
2 | – | – | – | – | – | – | O=C1CCC(N2Cc3cc(-c4cc(CN5CCCC5c5ccccc5)cc5cncn45)ccc3C2=O)C(=O)N1 (stereo not shown) [Example 26, 3-(1-oxo-5-(7-((2-phenylpyrrolidin-1-yl)methyl)imidazo[1,5-a]pyridin-5-yl)isoindolin-2-yl) piperidine-2,6-dione] | 6.30 to 7.00 | < 30 | < 30 | 30 to 50 | 30 to 50 | 30 to 50
3 | – | – | – | – | – | – | O=C1CCC(N2Cc3cc(-c4cc(CN5CCCCC5)cn5ccnc45)ccc3C2=O)C(=O)N1 (stereo not shown) [Example 33, 3-(1-oxo-5-(6-(piperidin-1-ylmethyl)imidazo[1,2-a]pyridin-8-yl)isoindolin-2-yl) piperidine-2,6-dione] | 6.30 to 7.00 | < 30 | > 50 | > 50 | > 50 | > 50
4 | – | – | – | – | – | – | O=C1CCC(N2Cc3cc(-c4cc(CN5CCC5)cn5ccnc45)ccc3C2=O)C(=O)N1 (stereo not shown) [Example 34, 3-(5-(6-(azetidin-1-ylmethyl)imidazo[1,2-a]pyridin-8-yl)-1-oxoisoindolin-2-yl) piperidine-2,6-dione] | > 7.00 | 30 to 50 | 30 to 50 | > 50 | > 50 | > 50
5 | – | – | – | – | – | – | O=C1CCC(N2Cc3cc(-c4cc(CN5CCC(F)(F)CC5)cn5ccnc45)ccc3C2=O)C(=O)N1 (stereo not shown) [Example 35, 3-(5-(6-((4,4-difluoropiperidin-1-yl)methyl)imidazo[1,2-a]pyridin-8-yl)-1-oxoisoindolin-2-yl) piperidine-2,6-dione] | 6.30 to 7.00 | < 30 | < 30 | < 30 | < 30 | < 30
6 | – | – | – | – | – | – | CC1(C)CCN(Cc2cc(-c3ccc4c(c3)CN(C3CCC(=O)NC3=O)C4=O)c3nccn3c2)CC1 (stereo not shown) [Example 36, 3-(5-(6-((4,4-dimethylpiperidin-1-yl)methyl)imidazo[1,2-a]pyridin-8-yl)-1-oxoisoindolin-2-yl) piperidine-2,6-dione] | 6.30 to 7.00 | 30 to 50 | 30 to 50 | < 30 | < 30 | < 30
7 | – | – | – | – | – | – | O=C1CCC(N2Cc3cc(-c4cc(CN5CCC(C(F)(F)F)CC5)cn5ccnc45)ccc3C2=O)C(=O)N1 (stereo not shown) [Example 37, 3-(1-oxo-5-(6-((4-(trifluoromethyl)piperidin-1-yl)methyl)imidazo[1,2-a]pyridin-8-yl)isoindolin-2-yl) piperidine-2,6-dione] | > 7.00 | < 30 | < 30 | < 30 | < 30 | < 30
8 | 0.001 to 0.01 | > 80 | 0.001 to 0.01 | > 80 | 0.01 to 0.1 | 20 to 40 | Cn1cc2nc(-c3ccc4c(c3)CN(C3CCC(=O)NC3=O)C4=O)cc(CN3CCCC3)c2n1 (stereo not shown) [Example 314, 3-(5-(2-methyl-7-(pyrrolidin-1-ylmethyl)-2H-pyrazolo[4,3-b]pyridin-5-yl)-1-oxoisoindolin-2-yl) piperidine-2,6-dione] | 6.30 to 7.00 | – | – | – | – | –
